Results as given in patent publication US8501446B2 (Vertex Pharmaceuticals Incorporated, priority 2004, dated 2013).

Tests used:
Assay type in all cases: biochemical
[1] = molecular target: T1, full length Aurora-A (AA 1-403) (Homo sapiens, UniProt O14965); assay: Aurora-A inhibition assay, standard coupled enzyme system; conditions: average Ki if more than one value determined
T1 construct: full length Aurora-A (AA 1-403)
T1 sequence (O14965 1-403): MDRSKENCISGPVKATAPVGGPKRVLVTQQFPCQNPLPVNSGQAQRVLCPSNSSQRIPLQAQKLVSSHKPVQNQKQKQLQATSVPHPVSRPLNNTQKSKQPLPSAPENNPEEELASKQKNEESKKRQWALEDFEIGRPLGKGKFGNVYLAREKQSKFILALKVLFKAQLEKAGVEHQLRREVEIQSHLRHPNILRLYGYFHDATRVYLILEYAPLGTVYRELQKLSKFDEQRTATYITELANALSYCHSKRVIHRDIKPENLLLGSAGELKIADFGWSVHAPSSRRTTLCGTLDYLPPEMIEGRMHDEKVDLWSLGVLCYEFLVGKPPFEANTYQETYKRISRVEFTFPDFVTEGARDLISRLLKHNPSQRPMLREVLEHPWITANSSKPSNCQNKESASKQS

JAK3 = molecular target: T2, JAK3 (Homo sapiens, UniProt P52333); assay: JAK3 inhibition assay (standard radioactive enzyme assay); conditions: average Ki if more than one value determined
T2 sequence (P52333 1-1124): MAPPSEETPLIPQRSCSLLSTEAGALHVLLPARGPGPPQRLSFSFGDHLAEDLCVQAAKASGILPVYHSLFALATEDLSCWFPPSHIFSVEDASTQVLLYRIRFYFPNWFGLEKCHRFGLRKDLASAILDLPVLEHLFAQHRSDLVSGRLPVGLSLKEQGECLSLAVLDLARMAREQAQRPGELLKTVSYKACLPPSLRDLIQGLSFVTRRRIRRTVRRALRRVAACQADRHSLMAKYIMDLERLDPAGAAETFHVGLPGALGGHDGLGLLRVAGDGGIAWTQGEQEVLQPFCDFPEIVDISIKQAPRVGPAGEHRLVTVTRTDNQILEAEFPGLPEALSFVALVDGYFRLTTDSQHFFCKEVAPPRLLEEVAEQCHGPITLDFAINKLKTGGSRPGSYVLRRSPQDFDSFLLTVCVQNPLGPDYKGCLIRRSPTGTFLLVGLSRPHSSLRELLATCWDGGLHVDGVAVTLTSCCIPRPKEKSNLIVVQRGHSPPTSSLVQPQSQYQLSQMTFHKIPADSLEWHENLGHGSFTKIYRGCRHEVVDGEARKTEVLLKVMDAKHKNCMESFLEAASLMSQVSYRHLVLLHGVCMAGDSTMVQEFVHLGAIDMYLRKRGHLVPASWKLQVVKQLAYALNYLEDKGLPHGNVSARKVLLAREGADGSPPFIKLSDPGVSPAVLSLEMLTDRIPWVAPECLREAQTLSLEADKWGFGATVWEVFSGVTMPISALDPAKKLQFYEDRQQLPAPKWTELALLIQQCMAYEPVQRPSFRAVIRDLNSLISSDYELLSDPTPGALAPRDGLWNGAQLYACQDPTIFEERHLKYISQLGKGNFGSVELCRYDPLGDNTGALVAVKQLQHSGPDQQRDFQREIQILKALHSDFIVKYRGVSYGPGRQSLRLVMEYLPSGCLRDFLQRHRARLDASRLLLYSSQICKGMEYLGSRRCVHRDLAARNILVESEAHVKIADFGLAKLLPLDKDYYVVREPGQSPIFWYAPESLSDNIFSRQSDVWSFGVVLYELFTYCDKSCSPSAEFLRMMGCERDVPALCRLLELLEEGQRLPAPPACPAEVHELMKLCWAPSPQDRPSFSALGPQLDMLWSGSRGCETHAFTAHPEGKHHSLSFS

JAK2 = JAK2 (Homo sapiens, UniProt O60674); assay: JAK2 inhibition assay (radioactive enzyme assay, as for JAK3); conditions: average Ki if more than one value determined
Sequence of JAK2 (O60674 whole entry, species assumed): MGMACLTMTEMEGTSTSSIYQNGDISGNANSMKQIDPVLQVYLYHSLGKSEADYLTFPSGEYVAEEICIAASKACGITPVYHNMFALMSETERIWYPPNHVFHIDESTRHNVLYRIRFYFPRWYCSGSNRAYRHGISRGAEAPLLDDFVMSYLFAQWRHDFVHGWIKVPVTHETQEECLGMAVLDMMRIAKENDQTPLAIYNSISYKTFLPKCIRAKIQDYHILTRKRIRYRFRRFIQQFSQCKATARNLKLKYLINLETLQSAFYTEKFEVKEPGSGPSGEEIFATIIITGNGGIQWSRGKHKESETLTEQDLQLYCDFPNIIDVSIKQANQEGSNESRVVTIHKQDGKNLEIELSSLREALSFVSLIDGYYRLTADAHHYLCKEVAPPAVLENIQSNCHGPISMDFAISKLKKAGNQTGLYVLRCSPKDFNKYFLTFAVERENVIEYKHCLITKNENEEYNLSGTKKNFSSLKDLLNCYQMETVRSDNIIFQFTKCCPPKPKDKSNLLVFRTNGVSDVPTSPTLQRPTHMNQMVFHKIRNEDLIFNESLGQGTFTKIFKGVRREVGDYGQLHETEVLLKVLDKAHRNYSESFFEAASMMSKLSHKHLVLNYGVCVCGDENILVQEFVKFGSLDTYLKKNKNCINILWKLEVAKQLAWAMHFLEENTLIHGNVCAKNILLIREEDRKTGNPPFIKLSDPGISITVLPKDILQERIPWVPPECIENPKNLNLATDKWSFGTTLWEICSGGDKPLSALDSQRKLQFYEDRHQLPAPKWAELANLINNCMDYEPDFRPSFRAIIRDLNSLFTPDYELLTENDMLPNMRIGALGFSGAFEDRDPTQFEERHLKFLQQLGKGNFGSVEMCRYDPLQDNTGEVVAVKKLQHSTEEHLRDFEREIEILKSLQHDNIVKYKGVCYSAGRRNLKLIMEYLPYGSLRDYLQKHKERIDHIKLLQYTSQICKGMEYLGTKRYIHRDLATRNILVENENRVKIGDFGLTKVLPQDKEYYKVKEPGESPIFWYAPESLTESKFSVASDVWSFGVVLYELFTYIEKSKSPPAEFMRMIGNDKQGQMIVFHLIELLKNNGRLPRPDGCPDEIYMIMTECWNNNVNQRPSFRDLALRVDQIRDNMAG
Outline: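 Both kinases: poly(Glu)4Tyr substrate in 100 mM HEPES pH 7.4, 10 mM MgCl2, 1 mM DTT. Run 20 min at 25° C, TCA stop, filter-bound ³³P counted, Ki(app) fitted after background subtraction. JAK3: final [γ-³³P]ATP 5 μM, enzyme added as 2 nM solution. JAK2: final poly(Glu)4Tyr 15 μM, final ATP 12 μM.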

ROCK I (AA 6-553) = molecular target: T3, ROCK I (AA 6-553) (Homo sapiens, UniProt Q13464); assay: ROCK inhibition assay, standard coupled enzyme system ("Enzyme"); conditions: enzyme-linked assay
T3 construct: ROCK I (AA 6-553)
T3 sequence (Q13464 6-553, species assumed): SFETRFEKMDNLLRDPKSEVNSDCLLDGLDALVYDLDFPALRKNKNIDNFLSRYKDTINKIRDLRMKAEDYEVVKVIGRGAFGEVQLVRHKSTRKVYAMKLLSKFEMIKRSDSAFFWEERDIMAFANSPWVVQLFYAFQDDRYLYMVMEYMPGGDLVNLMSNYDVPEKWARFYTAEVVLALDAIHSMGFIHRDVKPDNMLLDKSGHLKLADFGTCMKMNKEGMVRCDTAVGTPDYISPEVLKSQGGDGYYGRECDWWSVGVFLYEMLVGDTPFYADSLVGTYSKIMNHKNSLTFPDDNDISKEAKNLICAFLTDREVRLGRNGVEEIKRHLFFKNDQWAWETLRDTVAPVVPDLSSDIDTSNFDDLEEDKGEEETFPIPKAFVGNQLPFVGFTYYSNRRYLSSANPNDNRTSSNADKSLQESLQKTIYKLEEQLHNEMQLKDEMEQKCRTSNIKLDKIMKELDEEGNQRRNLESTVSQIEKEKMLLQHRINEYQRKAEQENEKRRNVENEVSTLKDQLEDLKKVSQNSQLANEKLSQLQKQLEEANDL
Outline: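 ROCK I (AA 6-553) at 45 nM and 30 °C with 45 μM ATP and 200 μM peptide, in 100 mM HEPES pH 7.5, 10 mM MgCl2, 25 mM NaCl, 2 mM DTT, 1.5% DMSO. ADP output read by a PK/LDH coupled system: 2.5 mM PEP, 350 μM NADH, 30 μg/ml PK, 10 μg/ml LDH.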

Row | Compound | Ki [1] | Ki (JAK3) | Ki (JAK2) | Ki (ROCK I (AA 6-553))
1 | CC(=O)N1[C@H](C)CN(c2cccc(-c3c[nH]c4ncc(C(=O)N5CCN(C)CC5)cc34)n2)C[C@@H]1C [Compound 57] | 500 to 5000 nM | 500 to 5000 nM | > 5000 nM | 500 to 5000 nM
2 | CC(=O)N1[C@H](C)CN(c2cccc(-c3c[nH]c4ncc(C(=O)NC5CCCCC5)cc34)n2)C[C@@H]1C [Compound 58] | 500 to 5000 nM | < 500 nM | < 500 nM | 500 to 5000 nM
3 | CNC(=O)c1cnc2[nH]cc(-c3cccc(N4C[C@@H](C)N(C(C)=O)[C@@H](C)C4)n3)c2c1 [Compound 59] | 500 to 5000 nM | < 500 nM | < 500 nM | 500 to 5000 nM
4 | CC(=O)N1[C@H](C)CN(c2cccc(-c3c[nH]c4ncc(C(=O)N(C)C)cc34)n2)C[C@@H]1C [Compound 60] | 500 to 5000 nM | 500 to 5000 nM | 500 to 5000 nM | 500 to 5000 nM
5 | COC(=O)Nc1cnc2[nH]cc(-c3cccc(N4C[C@@H](C)N(C(C)=O)[C@@H](C)C4)n3)c2c1 [Compound 66] | 500 to 5000 nM | < 500 nM | < 500 nM | 500 to 5000 nM
6 | CC(=O)N1[C@H](C)CN(c2cc(C(=O)O)cc(-c3c[nH]c4ncc(Cl)cc34)n2)C[C@@H]1C [Compound 67] | < 500 nM | < 500 nM | < 500 nM | 500 to 5000 nM
7 | CC(=O)N1[C@H](C)CN(c2nc(-c3c[nH]c4ncc(Cl)cc34)c(F)cc2C#N)C[C@@H]1C [Compound 68] | < 500 nM | < 500 nM | < 500 nM | 500 to 5000 nM
8 | CC(=O)N1[C@H](C)CN(c2cccc(-c3c[nH]c4ncc(NC(=O)Oc5ccccc5)cc34)n2)C[C@@H]1C [Compound 69] | 500 to 5000 nM | < 500 nM | < 500 nM | 500 to 5000 nM
9 | CCOC(=O)Nc1cnc2[nH]cc(-c3cccc(N4C[C@@H](C)N(C(C)=O)[C@@H](C)C4)n3)c2c1 [Compound 70] | 500 to 5000 nM | < 500 nM | < 500 nM | 500 to 5000 nM
10 | CC(=O)N1[C@H](C)CN(c2nc(-c3c[nH]c4ncc(Cl)cc34)c(F)cc2C(N)=O)C[C@@H]1C [Compound 72] | < 500 nM | < 500 nM | 500 to 5000 nM | 500 to 5000 nM
11 | CC(=O)N1[C@H](C)CN(c2nc(-c3c[nH]c4ncc(Cl)cc34)ccc2[N+](=O)[O-])C[C@@H]1C [Compound 75] | < 500 nM | < 500 nM | < 500 nM | < 500 nM
12 | CC(=O)N1[C@H](C)CN(c2nc(-c3c[nH]c4ncc(Cl)cc34)ccc2N)C[C@@H]1C [Compound 76] | < 500 nM | < 500 nM | < 500 nM | 500 to 5000 nM
13 | CC(=O)N1[C@H](C)CN(c2ccc([N+](=O)[O-])c(-c3c[nH]c4ncc(Cl)cc34)n2)C[C@@H]1C [Compound 78] | < 500 nM | < 500 nM | < 500 nM | 500 to 5000 nM
14 | CC(=O)N1[C@H](C)CN(c2nc(-c3c[nH]c4ncc(Cl)cc34)cc(C)c2C#N)C[C@@H]1C [Compound 79] | < 500 nM | < 500 nM | < 500 nM | 500 to 5000 nM
15 | CC(=O)N1[C@H](C)CN(c2cc(C)c(C#N)c(-c3c[nH]c4ncc(Cl)cc34)n2)C[C@@H]1C [Compound 80] | < 500 nM | < 500 nM | < 500 nM | 500 to 5000 nM
16 | CC(=O)N1[C@H](C)CN(c2ccc(N)c(-c3c[nH]c4ncc(Cl)cc34)n2)C[C@@H]1C [Compound 81] | < 500 nM | 500 to 5000 nM | 500 to 5000 nM | 500 to 5000 nM
17 | CC(=O)N1[C@H](C)CN(c2nc(-c3c[nH]c4ncc(Cl)cc34)ccc2C#N)C[C@@H]1C [Compound 92] | < 500 nM | < 500 nM | < 500 nM | < 500 nM
18 | CC(=O)N1[C@H](C)CN(c2ccc(C#N)c(-c3c[nH]c4ncc(Cl)cc34)n2)C[C@@H]1C [Compound 93] | < 500 nM | < 500 nM | < 500 nM | 500 to 5000 nM
19 | CC(=O)N1[C@H](C)CN(c2cccc(-c3c[nH]c4ncc(OCCN5CCOCC5)cc34)n2)C[C@@H]1C [Compound 95] | 500 to 5000 nM | 500 to 5000 nM | 500 to 5000 nM | 500 to 5000 nM
20 | CC(=O)N1[C@H](C)CN(c2cccc(-c3c[nH]c4ncc(OC5CCOC5)cc34)n2)C[C@@H]1C (some centres unmarked) [Compound 96] | 500 to 5000 nM | < 500 nM | < 500 nM | 500 to 5000 nM
21 | CC(=O)N1[C@H](C)CN(c2cc(C(N)=O)cc(-c3c[nH]c4ncc(Cl)cc34)n2)C[C@@H]1C [Compound 97] | < 500 nM | < 500 nM | < 500 nM | 500 to 5000 nM

Next, values leading:

Row | Ki [1] | Ki (JAK3) | Ki (JAK2) | Ki (ROCK I (AA 6-553)) | Compound
22 | < 500 nM | < 500 nM | < 500 nM | 500 to 5000 nM | CC(=O)N1[C@H](C)CN(c2cc(C#N)cc(-c3c[nH]c4ncc(Cl)cc34)n2)C[C@@H]1C [Compound 98]
23 | < 500 nM | < 500 nM | < 500 nM | 500 to 5000 nM | CC(C)CNc1cccc(-c2c[nH]c3ncc(Cl)cc23)n1 [Compound 99]
24 | < 500 nM | < 500 nM | < 500 nM | 500 to 5000 nM | OC[C@H](Nc1cccc(-c2c[nH]c3ncc(Cl)cc23)n1)c1ccccc1 [Compound 100]
25 | < 500 nM | < 500 nM | < 500 nM | 500 to 5000 nM | OC[C@@H](Nc1cccc(-c2c[nH]c3ncc(Cl)cc23)n1)c1ccccc1 [Compound 101]
26 | 500 to 5000 nM | < 500 nM | < 500 nM | 500 to 5000 nM | C[C@H](CO)Nc1cccc(-c2c[nH]c3ncc(Cl)cc23)n1 [Compound 102]
27 | 500 to 5000 nM | < 500 nM | < 500 nM | 500 to 5000 nM | C[C@@H](CO)Nc1cccc(-c2c[nH]c3ncc(Cl)cc23)n1 [Compound 103]
28 | 500 to 5000 nM | 500 to 5000 nM | 500 to 5000 nM | 500 to 5000 nM | CC(=O)N1[C@H](C)CN(c2ccc(-c3nnn[nH]3)c(-c3c[nH]c4ncc(Cl)cc34)n2)C[C@@H]1C [Compound 110]
29 | 500 to 5000 nM | < 500 nM | < 500 nM | 500 to 5000 nM | CC(=O)Nc1cnc2[nH]cc(-c3cccc(N4C[C@@H](C)N(C(C)=O)[C@@H](C)C4)n3)c2c1 [Compound 113]
30 | 500 to 5000 nM | < 500 nM | < 500 nM | 500 to 5000 nM | CCC(=O)Nc1cnc2[nH]cc(-c3cccc(N4C[C@@H](C)N(C(C)=O)[C@@H](C)C4)n3)c2c1 [Compound 114]
31 | 500 to 5000 nM | < 500 nM | < 500 nM | 500 to 5000 nM | CC(=O)N1[C@H](C)CN(c2cccc(-c3c[nH]c4ncc(NC(=O)C(C)C)cc34)n2)C[C@@H]1C [Compound 117]
32 | 500 to 5000 nM | < 500 nM | < 500 nM | 500 to 5000 nM | C=CC(=O)Nc1cnc2[nH]cc(-c3cccc(N4C[C@@H](C)N(C(C)=O)[C@@H](C)C4)n3)c2c1 [Compound 118]
